Several values for one entry are separate records, joined by “and”; a condition that tells them apart may be missing. Equal values may be shown once. Entries after “also recorded” stand apart in the source; their conditions may differ. Read-outs that look alike come from different tables or passages of the source.
What was measured:
[1] = system: aEPSCs in hippocampal neurons; test: Autaptic excitatory postsynaptic currents (aEPSCs) in hippocampal microcultures; type: cell-based, rat
[2] = target: T1, δ-containing GABAA receptors in hippocampal neurons (Rattus norvegicus, UniProt P18506); test: THIP-evoked currents in cultured hippocampal neurons; type: cell-based; conditions: 30 μM flupirtine; 3 μM THIP; greater extent than 3 μM GABA in 5 mM penicillin
T1 construct: endogenous in cells; host or cells: primary cultured rat hippocampal neurons

[3] = system: tonically active GABAA receptors in hippocampal neurons; type: cell-based, rat
[4] = system: aIPSCs in hippocampal neurons; test: Autaptic inhibitory postsynaptic currents (aIPSCs) in hippocampal microcultures; type: cell-based, rat
[5] = system: untransfected tsA 201 cells; test: Control recordings in untransfected tsA 201 cells; type: cell-based; conditions: control experiments
Method: Primary cultures of rat hippocampal and DH neurons were prepared as described previously (Klinger et al., [2012]). Micro-island cultures were obtained as detailed elsewhere (Dorostkar and Boehm, [2007]). For heterologous expression of GABAA receptors and Kv7 channels, tsA 201 cells (a subclone of HEK 293 cells) were cultured in DMEM containing 1 g · L^−1 glucose and 10% heat-inactivated fetal calf serum. Cells were transfected using ExGen 500 or TurboFect according to the manufacturer's recommendations, with a transfection ratio of 1:1 for αβ receptors, 1:1:8 for αβγ or αβδ receptors and 1:1 for heteromeric Kv7.2/Kv7.3 channels. The day after transfection, cells were seeded at a low density and used for patch-clamp recordings 24–48 h after transfection.

α5β3γ2S GABAA receptor = target: T2, α5β3γ2S GABAA receptor (Rattus norvegicus, UniProt P18508+P19969+P63079); test: GABA-evoked currents through recombinant receptors in tsA 201 cells; type: cell-based; conditions: 30 μM flupirtine, normalized to 30 μM GABA in solvent
T2 construct: expressed in transfected cells; host or cells: tsA 201 cells

α2β2γ2S GABAA receptor = target: T3, α2β2γ2S GABAA receptor (Rattus norvegicus, UniProt P18508+P23576+P63138); test: as above; type: cell-based; conditions: 30 μM flupirtine, normalized to 30 μM GABA in solvent, n.s. vs solvent
T3 construct: expressed in transfected cells; host or cells: tsA 201 cells

[6] = system: native GABAA receptors in hippocampal neurons; test: GABA-evoked currents in cultured hippocampal neurons, perforated patch; type: cell-based, rat; conditions: for GABA Emax (normalized) in the presence of flupirtine (30 μM) / GABA Emax (normalized), solvent: Hippocampus neurons
[7] = parameters: method as in Friedel and Fitton, 1993; conditions: ref Friedel and Fitton, 1993; cited from earlier work
α1β2 GABAA receptor = target: T4, α1β2 GABAA receptor (Rattus norvegicus, UniProt P62813+P63138); test: GABA-evoked currents through recombinant receptors in tsA 201 cells; type: cell-based; conditions: 30 μM flupirtine, normalized to 30 μM GABA in solvent
T4 construct: expressed in transfected cells; host or cells: tsA 201 cells

[8] = system: GABAA receptors in DH neurons; test: GABA-evoked currents in dorsal horn neurons; type: cell-based, rat; conditions: 3 μM GABA; concentration-dependent
[9] = target: T5, δ-containing GABAA receptors in DH neurons (Rattus norvegicus, UniProt P18506); test: THIP-evoked currents in dorsal horn neurons; type: cell-based; conditions: 3 μM THIP; concentration-dependent; more pronounced than on GABA currents; at 10 μM larger than on K+ currents
T5 construct: endogenous in cells; host or cells: primary cultured rat dorsal horn neurons

α1β2δ GABAA receptor = target: T6, α1β2δ GABAA receptor (Rattus norvegicus, UniProt P18506+P62813+P63138); test: GABA-evoked currents through recombinant receptors in tsA 201 cells; type: cell-based
T6 construct: expressed in transfected cells; host or cells: tsA 201 cells

α4β3 GABAA receptor = target: T7, α4β3 GABAA receptor (Rattus norvegicus, UniProt P28471+P63079); test: as above; type: cell-based; conditions: 30 μM flupirtine, normalized to 30 μM GABA in solvent
T7 construct: expressed in transfected cells; host or cells: tsA 201 cells

[10] = system: αβ and γ-containing recombinant GABAA receptors; type: cell-based, rat
[11] = Plasma pharmacokinetics and therapeutic plasma levels of flupirtine (literature); type: in vivo; conditions: after single doses
[12] = target: T8, heteromeric Kv7.2/Kv7.3 channels (UniProt O43526+O88944); test: Currents through recombinant Kv7 channels in tsA 201 cells, ramp hyperpolarizations, amplitude at −30 mV; type: cell-based
T8 construct: expressed in transfected cells; host or cells: tsA 201 cells

[13] = system: Kv7 channels in DH neurons; test: K+ currents in dorsal horn neurons, ramp hyperpolarizations, amplitude at −30 mV; type: cell-based, rat; conditions: 3 and 10 μM flupirtine; quantified at −30 mV
[14] = cited from earlier work
[15] = system: mIPSCs in hippocampal neurons; type: cell-based, rat
α3β3γ2S GABAA receptor = target: T9, α3β3γ2S GABAA receptor (Rattus norvegicus, UniProt P18508+P20236+P63079); test: GABA-evoked currents through recombinant receptors in tsA 201 cells; type: cell-based; conditions: 30 μM flupirtine, normalized to 30 μM GABA in solvent, n.s. vs solvent
T9 construct: expressed in transfected cells; host or cells: tsA 201 cells

α4β3γ2S GABAA receptor = target: T10, α4β3γ2S GABAA receptor (Rattus norvegicus, UniProt P18508+P28471+P63079); test: as above; type: cell-based; conditions: 30 μM flupirtine, normalized to 30 μM GABA in solvent
T10 construct: expressed in transfected cells; host or cells: tsA 201 cells

α4β3δ GABAA receptor = target: T11, α4β3δ GABAA receptor (Rattus norvegicus, UniProt P18506+P28471+P63079); test: as above; type: cell-based
T11 construct: expressed in transfected cells; host or cells: tsA 201 cells

α1β2γ2S GABAA receptor = target: T12, α1β2γ2S GABAA receptor (Rattus norvegicus, UniProt P18508+P62813+P63138); test: as above; type: cell-based
T12 construct: expressed in transfected cells; host or cells: tsA 201 cells

Kv7 channels = system: Kv7 channels; parameters: method as in Klinger et al., 2012; conditions: ref Klinger et al., 2012; read-out: EC50 for the facilitation of Kv7 channels; cited from earlier work
[16] = system: Kv7 channels in hippocampal neurons; test: K+ currents in hippocampal neurons, ramp hyperpolarizations, amplitude at −30 mV; type: cell-based, rat

T11 sequence (P28471 36-552): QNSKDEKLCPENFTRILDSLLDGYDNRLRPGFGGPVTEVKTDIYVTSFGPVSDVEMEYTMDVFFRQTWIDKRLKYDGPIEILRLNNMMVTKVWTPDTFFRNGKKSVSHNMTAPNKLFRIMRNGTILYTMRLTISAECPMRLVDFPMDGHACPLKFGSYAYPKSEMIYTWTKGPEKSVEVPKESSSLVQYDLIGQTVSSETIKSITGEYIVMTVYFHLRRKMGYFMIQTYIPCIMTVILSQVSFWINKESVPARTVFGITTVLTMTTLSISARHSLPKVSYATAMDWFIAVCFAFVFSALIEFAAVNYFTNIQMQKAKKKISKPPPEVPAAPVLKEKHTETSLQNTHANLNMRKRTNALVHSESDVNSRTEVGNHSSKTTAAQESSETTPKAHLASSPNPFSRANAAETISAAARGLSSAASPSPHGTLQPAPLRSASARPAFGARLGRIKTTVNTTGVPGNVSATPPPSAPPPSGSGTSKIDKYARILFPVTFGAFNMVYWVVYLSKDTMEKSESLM
T11 sequence (P63079 26-473): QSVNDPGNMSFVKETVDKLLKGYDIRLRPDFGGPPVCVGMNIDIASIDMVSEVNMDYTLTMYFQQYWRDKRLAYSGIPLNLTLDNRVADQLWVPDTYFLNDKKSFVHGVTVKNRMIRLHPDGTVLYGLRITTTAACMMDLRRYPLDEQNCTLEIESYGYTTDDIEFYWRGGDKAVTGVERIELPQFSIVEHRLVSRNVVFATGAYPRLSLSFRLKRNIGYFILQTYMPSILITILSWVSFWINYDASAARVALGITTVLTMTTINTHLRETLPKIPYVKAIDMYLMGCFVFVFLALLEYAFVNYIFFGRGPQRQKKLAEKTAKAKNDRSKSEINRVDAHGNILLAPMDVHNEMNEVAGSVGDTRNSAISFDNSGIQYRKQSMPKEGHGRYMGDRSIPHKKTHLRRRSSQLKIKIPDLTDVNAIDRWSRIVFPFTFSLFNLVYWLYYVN
T11 sequence (P18506 17-449 limits assumed): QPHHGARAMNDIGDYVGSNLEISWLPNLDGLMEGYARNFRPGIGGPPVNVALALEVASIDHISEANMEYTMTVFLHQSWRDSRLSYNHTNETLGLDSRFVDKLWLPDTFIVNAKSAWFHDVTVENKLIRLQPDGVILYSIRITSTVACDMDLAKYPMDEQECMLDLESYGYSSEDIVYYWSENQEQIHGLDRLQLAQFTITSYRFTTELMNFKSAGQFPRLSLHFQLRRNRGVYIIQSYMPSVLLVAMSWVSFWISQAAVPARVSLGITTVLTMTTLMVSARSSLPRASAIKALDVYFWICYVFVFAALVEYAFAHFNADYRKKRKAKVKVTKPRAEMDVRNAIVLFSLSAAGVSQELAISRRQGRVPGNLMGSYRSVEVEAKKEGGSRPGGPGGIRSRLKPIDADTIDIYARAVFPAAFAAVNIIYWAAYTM
T6 sequence (P62813 28-455): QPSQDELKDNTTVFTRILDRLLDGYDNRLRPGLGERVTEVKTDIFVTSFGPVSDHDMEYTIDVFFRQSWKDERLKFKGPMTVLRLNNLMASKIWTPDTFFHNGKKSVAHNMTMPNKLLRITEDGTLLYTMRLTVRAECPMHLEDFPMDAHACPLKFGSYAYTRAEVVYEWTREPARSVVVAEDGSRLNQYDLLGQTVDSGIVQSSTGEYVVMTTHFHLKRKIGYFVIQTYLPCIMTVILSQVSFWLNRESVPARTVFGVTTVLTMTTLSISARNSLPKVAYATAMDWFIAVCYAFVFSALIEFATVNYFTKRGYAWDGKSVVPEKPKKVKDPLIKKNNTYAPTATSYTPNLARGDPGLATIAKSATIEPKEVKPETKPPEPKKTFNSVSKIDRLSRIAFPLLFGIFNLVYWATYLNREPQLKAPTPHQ
T6 sequence (P63138 25-474 limits assumed): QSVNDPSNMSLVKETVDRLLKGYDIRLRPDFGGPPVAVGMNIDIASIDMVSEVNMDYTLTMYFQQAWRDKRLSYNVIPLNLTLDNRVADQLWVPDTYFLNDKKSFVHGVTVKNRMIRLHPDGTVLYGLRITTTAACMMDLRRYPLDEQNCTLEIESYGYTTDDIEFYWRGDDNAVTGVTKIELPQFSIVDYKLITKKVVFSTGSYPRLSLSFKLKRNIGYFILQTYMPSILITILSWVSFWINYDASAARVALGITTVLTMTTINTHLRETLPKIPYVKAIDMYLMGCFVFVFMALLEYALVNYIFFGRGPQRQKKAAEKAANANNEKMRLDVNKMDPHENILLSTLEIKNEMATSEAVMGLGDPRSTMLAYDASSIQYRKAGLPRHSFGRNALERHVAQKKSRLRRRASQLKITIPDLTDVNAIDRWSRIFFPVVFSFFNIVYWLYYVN
T6 sequence (P18506 17-449 limits assumed): as the sequence (P18506 17-449 limits assumed) above
T12 sequence (P62813 28-455): as the sequence (P62813 28-455) above
T12 sequence (P63138 25-474 limits assumed): as the sequence (P63138 25-474 limits assumed) above
T12 sequence (P18508 39-466): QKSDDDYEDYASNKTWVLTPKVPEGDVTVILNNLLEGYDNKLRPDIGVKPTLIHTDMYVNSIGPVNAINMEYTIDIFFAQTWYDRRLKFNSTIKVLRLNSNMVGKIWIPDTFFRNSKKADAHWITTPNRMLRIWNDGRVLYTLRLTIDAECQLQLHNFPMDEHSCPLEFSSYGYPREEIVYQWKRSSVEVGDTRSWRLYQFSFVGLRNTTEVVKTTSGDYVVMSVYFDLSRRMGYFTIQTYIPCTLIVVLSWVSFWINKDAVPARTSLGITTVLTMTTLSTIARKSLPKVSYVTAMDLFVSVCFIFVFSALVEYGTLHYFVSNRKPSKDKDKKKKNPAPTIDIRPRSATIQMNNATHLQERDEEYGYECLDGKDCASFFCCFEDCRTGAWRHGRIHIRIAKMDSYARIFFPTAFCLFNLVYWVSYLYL
T3 sequence (P23576 29-451): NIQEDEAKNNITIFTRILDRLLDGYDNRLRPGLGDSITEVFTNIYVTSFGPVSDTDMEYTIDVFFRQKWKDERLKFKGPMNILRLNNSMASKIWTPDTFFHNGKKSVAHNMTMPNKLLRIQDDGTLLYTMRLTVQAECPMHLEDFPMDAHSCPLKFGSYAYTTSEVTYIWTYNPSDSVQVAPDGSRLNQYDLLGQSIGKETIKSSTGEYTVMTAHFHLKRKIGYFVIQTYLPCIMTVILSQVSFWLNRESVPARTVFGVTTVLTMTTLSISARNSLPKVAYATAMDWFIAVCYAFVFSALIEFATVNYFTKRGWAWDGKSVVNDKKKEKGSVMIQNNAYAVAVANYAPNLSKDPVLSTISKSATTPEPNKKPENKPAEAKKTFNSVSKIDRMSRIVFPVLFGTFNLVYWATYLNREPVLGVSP
T3 sequence (P63138 25-474 limits assumed): as the sequence (P63138 25-474 limits assumed) above
T3 sequence (P18508 39-466): as the sequence (P18508 39-466) above
T9 sequence (P20236 29-493): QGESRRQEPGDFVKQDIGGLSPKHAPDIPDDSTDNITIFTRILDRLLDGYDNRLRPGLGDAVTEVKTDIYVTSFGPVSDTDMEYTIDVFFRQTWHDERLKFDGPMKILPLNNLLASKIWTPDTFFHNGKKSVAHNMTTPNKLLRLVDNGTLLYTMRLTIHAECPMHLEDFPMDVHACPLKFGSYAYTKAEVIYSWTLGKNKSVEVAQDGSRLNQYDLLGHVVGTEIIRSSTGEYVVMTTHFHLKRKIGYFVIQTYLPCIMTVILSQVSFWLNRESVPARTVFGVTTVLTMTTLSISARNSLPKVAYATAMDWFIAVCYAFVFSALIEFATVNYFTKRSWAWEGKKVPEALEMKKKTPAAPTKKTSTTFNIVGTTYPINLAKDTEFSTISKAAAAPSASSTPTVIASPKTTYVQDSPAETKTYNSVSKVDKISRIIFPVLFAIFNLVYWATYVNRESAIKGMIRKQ
T9 sequence (P63079 26-473): as the sequence (P63079 26-473) above
T9 sequence (P18508 39-466): as the sequence (P18508 39-466) above
T1 sequence (P18506 17-449 limits assumed): as the sequence (P18506 17-449 limits assumed) above
T5 sequence (P18506 17-449 limits assumed): as above
T7 sequence (P28471 36-552): as the sequence (P28471 36-552) above
T7 sequence (P63079 26-473): as the sequence (P63079 26-473) above
T10 sequence (P28471 36-552): as the sequence (P28471 36-552) above
T10 sequence (P63079 26-473): as the sequence (P63079 26-473) above
T10 sequence (P18508 39-466): as the sequence (P18508 39-466) above
T4 sequence (P62813 28-455): as the sequence (P62813 28-455) above
T4 sequence (P63138 25-474 limits assumed): as the sequence (P63138 25-474 limits assumed) above
T2 sequence (P19969 32-464 limits assumed): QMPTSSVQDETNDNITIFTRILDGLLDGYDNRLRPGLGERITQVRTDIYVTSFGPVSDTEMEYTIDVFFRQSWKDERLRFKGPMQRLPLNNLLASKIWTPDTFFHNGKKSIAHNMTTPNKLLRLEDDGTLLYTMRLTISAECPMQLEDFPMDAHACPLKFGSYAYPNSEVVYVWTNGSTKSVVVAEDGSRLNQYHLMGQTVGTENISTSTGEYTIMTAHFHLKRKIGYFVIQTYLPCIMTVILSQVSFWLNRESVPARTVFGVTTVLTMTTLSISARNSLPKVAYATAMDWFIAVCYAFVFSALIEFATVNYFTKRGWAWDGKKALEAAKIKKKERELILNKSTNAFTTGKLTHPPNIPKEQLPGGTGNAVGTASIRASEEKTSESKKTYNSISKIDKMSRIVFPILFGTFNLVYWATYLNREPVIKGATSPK
T2 sequence (P63079 26-473): as the sequence (P63079 26-473) above
T2 sequence (P18508 39-466): as the sequence (P18508 39-466) above

N#Cc1cc2nc(O)c(O)nc2cc1[N+](=O)[O-] [CNQX, cyano-2,3-dihydroxy-7-nitroquinoxaline]
Effect on aEPSCs ([1]; 10 μM CNQX): blocked

CCOC(=O)Nc1ccc(NCc2ccc(F)cc2)nc1N [Flupirtine]
Effect of flupirtine on THIP-induced currents [2]: augmented
Effect on holding currents ([3]; 30 μM flupirtine, −70 mV): shifted towards more negative values
Effect on amplitudes of bicuculline-sensitive tonic currents ([3]; 3 to 30 μM flupirtine, concentration-dependent): enhanced
Effect on aIPSC peak amplitudes [4]: unaltered
EC50 ([4]; Rattus norvegicus, Hippocampal neuron, n = 6, read-out: EC50 for the effect on aIPSC charge transfer): 12 µM
Effect on currents in untransfected cells [5]: failed to enhance any type of current
GABA Emax (normalized) in the presence of flupirtine (30 μM) (α5β3γ2S GABAA receptor): 0.94 ± 0.06
GABA Emax (normalized) in the presence of flupirtine (30 μM) (α2β2γ2S GABAA receptor): 2.54 ± 0.14 n.s.
Maximal increase in GABA-evoked current amplitudes (factor) [6]: ~9 and > 8
Maximal increase in GABA-evoked current amplitudes (factor) ([6]; 3 μM GABA in solvent, no penicillin): 2.5 and < 3
Effect of flupirtine on GABA-evoked currents ([6]; 3 μM flupirtine, presence of penicillin): enhanced
Effect of flupirtine on GABA-evoked currents ([6]; 10 μM flupirtine, absence of penicillin): increased
Effect of flupirtine on GABA-evoked currents ([6]; 10 μM flupirtine, presence of penicillin, more pronounced than on the other currents): increased
GABA Emax (normalized) in the presence of flupirtine (30 μM) ([6]; 30 μM flupirtine, normalized to 30 μM GABA in solvent, n.s. vs solvent): 1.25 ± 0.04 n.s.
GABA Emax (normalized) in the presence of flupirtine (30 μM) ([6]; 5 mM penicillin plus 30 μM flupirtine, normalized to 30 μM GABA in penicillin plus solvent): 1.46 ± 0.03
Bound by plasma proteins [7]: 80%
GABA Emax (normalized) in the presence of flupirtine (30 μM) (α1β2 GABAA receptor): 0.71 ± 0.02
Effect of flupirtine on GABA-induced currents [8]: enhanced
Effect of flupirtine on THIP-induced currents [9]: enhanced
Effect on aEPSCs ([1]; aIPSCs (former) vs aEPSCs (latter)): only the former ones were affected
EC50 (α1β2δ GABAA receptor): 108 µM
Effect of flupirtine on GABA-evoked currents (α1β2δ GABAA receptor): potentiated; also recorded: augmented
Maximum of flupirtine effect on GABA-evoked currents (normalized to solvent) (α1β2δ GABAA receptor): 28.8
GABA Emax (normalized) in the presence of flupirtine (30 μM) (α1β2δ GABAA receptor; α1β2δ, 30 μM flupirtine, normalized to 30 μM GABA in solvent): 2.27 ± 0.06
GABA Emax (normalized) in the presence of flupirtine (30 μM) (α4β3 GABAA receptor): 0.78 ± 0.02
Reduction of maximal current amplitudes [10]: 18 to 35%
Free plasma concentrations [11]: 1000 to 2000 nM
Effect of flupirtine on currents through Kv7 channels at −30 mV ([12]; 3 μM flupirtine): enhanced
Effect of flupirtine on currents through Kv7 channels at −30 mV ([12]; 10 μM flupirtine): augmented
Effect of flupirtine on K+ currents [13]: enhanced
Accumulation ([14]; four regularly spaced oral doses a day, ref Friedel and Fitton, 1993): more than twofold
Plasma half-life ([14]; ref Friedel and Fitton, 1993): about 10 h
Plasma concentrations ([14]; single dose of 200 mg, ref Hummel et al., 1991): around 5 μM
Effect on all characteristics of mIPSCs (amplitudes, rise times, half widths) ([15]; 30 μM flupirtine, 0.5 μM tetrodotoxin plus 10 μM CNQX): remained unaltered
GABA Emax (normalized) in the presence of flupirtine (30 μM) (α3β3γ2S GABAA receptor): 1.93 ± 0.10 n.s.
GABA Emax (normalized) in the presence of flupirtine (30 μM) (α4β3γ2S GABAA receptor): 1.63 ± 0.05
EC50 (α4β3δ GABAA receptor): 7 µM
Maximum of flupirtine effect on GABA-evoked currents (normalized to solvent) (α4β3δ GABAA receptor; α4β3δ, 1 μM GABA, fixed to the highest value determined): 1.5
Effect of flupirtine on GABA-evoked currents (α4β3δ GABAA receptor; α4β3δ, 3 μM flupirtine, 1 μM GABA): potentiated
Effect of flupirtine on GABA-evoked currents (α4β3δ GABAA receptor; α4β3δ, 10 μM flupirtine): augmented
GABA Emax (normalized) in the presence of flupirtine (30 μM) (α4β3δ GABAA receptor; α4β3δ, 30 μM flupirtine, normalized to 30 μM GABA in solvent): 1.55 ± 0.06
Effect of flupirtine on GABA-evoked currents (α1β2γ2S GABAA receptor; 10 μM flupirtine): augmented
GABA Emax (normalized) in the presence of flupirtine (30 μM) (α1β2γ2S GABAA receptor; 30 μM flupirtine, normalized to 30 μM GABA in solvent): 0.85 ± 0.02
EC50 (Kv7 channels): 5 µM
Effect of flupirtine on K+ currents at −30 mV ([16]; 3 μM flupirtine): enhanced
Effect of flupirtine on K+ currents at −30 mV ([16]; 10 μM flupirtine): increased

NCCCC(=O)O [GABA]
GABA Emax (normalized), solvent ([6]; 5 mM penicillin present, normalized to 30 μM GABA in penicillin plus solvent): 1.02 ± 0.02
GABA Emax (normalized), solvent ([6]; solvent, normalized to current by 30 μM GABA in solvent): 1.33 ± 0.03

Cc1ncc2n1-c1ccc(Cl)cc1C(c1ccccc1F)=NC2 [midazolam]
Effect on holding currents ([3]; 3 μM midazolam): slight shift of holding currents in an inward direction
Effect on half widths of mIPSCs ([15]; 3 μM midazolam): increased
Effect on mIPSC amplitudes or rise times ([15]; 3 μM midazolam): without altering

penicillin
Effect on holding currents ([3]; 5 mM penicillin): did not affect
Effect on maximal amplitudes of GABA-evoked currents ([6]; 5 mM penicillin): significantly reduced
Effect on mIPSCs ([15]; 5 mM penicillin): abolished

— paper PMC4621994 (British Journal of Pharmacology, 2015)
